Values after ≈ are worked out from the molar mass of the structure shown.
Legend:
Type in all cases: physicochemical
[1] = Stability test: cyclocreatine concentration in suspension formulation over 40 days; details: suspension in water (~200 mg/mL)
[2] = Solubility of cyclocreatine in water
Protocol: The collected micronized API was then formulated with water to form an aqueous microsuspension. 20.0 grams of cyclocreatine was weighed into a graduated vessel. Approximately 80 mL of water was added and the solution mixed to allow partial dissolution. After mixing for 5 minutes, water was added to dilute to a final volume of 100 mL.

[3] = Particle size analysis before and after milling; details: for Particle size: 200 mg/mL, 1.0 mm zirconia beads, 3344 rpm
From the text: To a milling vessel size of 0.6 liter of a Glen Dyno Mill about 70% volume of zirconia grinding media was charged. An agitator shaft activated the media, creating shearing and impacting forces. The rotation of the agitator imparted energy to the surrounding media and fractures the cyclocreatine solids suspended in water, resulting in overall reduction in particle size.
Water was charged into a stainless steel vessel equipped with overhead agitator and blanketed with nitrogen followed by the addition of cyclocreatine. The mixture was pumped via a peristaltic pump into the grinding chamber. The milled sample exiting the chamber was collected in another stainless steel vessel (also equipped with an overhead agitator and blanked with nitrogen) until the first vessel was empty at which time a three way valve was switched as to continue pumping the mixture in one of the vessels into the grinding chamber. The drug concentration in the suspension ranged from 10-20% w/v. […] The rotation of the disk accelerated the milling media radially. The suspension mixture flowed axially through the milling chamber where the shear forces generated during impaction of the milling media with the solid particles provided the energy input to fracture the drug into nanometer-sized particles. Up to 40% nanoparticles were observed. In another embodiment, up to about 10% nanoparticles by volume were observed. The temperature inside the grinding chamber was controlled by circulating coolant through the outer jacket. The resultant microsuspension had good flow characteristics and appeared milky (FIG. 2).
For example a 200 mg/mL solid concentration of formulation processed in a 0.6 liter sized grinding chamber filled with 1.0 mm diameter zirconia beads and a 3344 rpm agitator speed for a total of two hours produced samples with similar final particle size in three repeated experiments. In all instances, the particle size decreased markedly within 30 min processing time from the initial 400 μm to about 80 μm, but with little change observed between 30 and 120 min. Further prolonging in the milling times was not beneficial, because decreased particle sizes were not achieved. In addition to particle size analysis (FIG. 3), the SEM micrographs (FIG. 4) further confirmed that the milling process as effective in converting the original cyclocreatine particles into the low micron range.
(§1) The cyclocreatine samples were analyzed before and after milling (Example 1) to assess the effect of milling on the drug stability.

[4] = Drug stability: cyclocreatine degradation after milling
Protocol: as §1
After milling for about 45 min, the particle size of the micronized API appeared to have been reduced uniformly for the entire batch of sample.

[5] = by process condition (un-milled vs wet bead mill)

NC1=NCCN1CC(=O)O [Cyclocreatine, cyclocreatine]
Cyclocreatine concentration in the suspension sample ([1]; day 0): 177.1 ± 0.5 mg/g | Cyclocreatine concentration in the suspension sample ([1]; day 7): 174.6 ± 1.0 mg/g | Cyclocreatine concentration in the suspension sample ([1]; day 11): 175.7 ± 1.0 mg/g | Cyclocreatine concentration in the suspension sample ([1]; day 26): 176.9 ± 0.5 mg/g | Cyclocreatine concentration in the suspension sample ([1]; day 40): 180.1 ± 1.5 mg/g | solubility [2]: 17 mg/mL (≈ 119 mM) | Nanoparticles observed ([3]; after wet bead milling): Up to 40% | Nanoparticles by volume observed ([3]; after wet bead milling, another embodiment, by volume): up to 10% | Particle Size (μm, Volume weighted average) [3, 5]: 400 μm | Particle size ([3]; initial, before wet milling): 400 μm | Particle size ([3]; within 30 min processing time): about 80 μm | Cyclocreatine degradation after milling process (%) [4, 5]: 0% | Stability during the milling process ([4]; dry milling (pin mill), about 45 min): stable

Source: patent publication US20180071261A1, “CYCLOCREATINE MICROSUSPENSION” (Lumos Pharma, Inc., priority 2015, published 2018)
